The values below are quoted from earlier work in patent US20250255825A1, “POLYMER-LIPID NANOCOMPLEX FOR ENHANCED AQUEOUS SOLUBILISATION AND ABSORPTION OF HYDROPHOBIC ACTIVE COMPOUNDS” (priority 2019, published 2025).

By Log P is commonly meant the decadic logarithm of the partition coefficient of the neutral form, usually between octanol and water.

Read-outs that look alike come from different tables or passages of the source.

The subject of series [1] is malaria parasitaemia in the blood. The following applies: reported value for un-formulated LUM.
The conditions of series [2]: partition coefficient octanol/water.
Test in series [3]: not given
The source holds these as a separate data set.

Consider `CCCCN(CCCC)CC(O)c1cc(Cl)cc2c1-c1ccc(Cl)cc1/C2=C/c1ccc(Cl)cc1` (racemic) [Lumefantrine], for which the “effective dose (ED90) to clear 90% of parasitaemia in the blood” value in series [1] was 12.01 mg/kg. The protein bound in the series with plasma proteins is recorded as 99.7%. The “Log P” value in series [2] is on record as 9. Moreover, the “half-life (T½)” value (in vivo) was 96 to 120 h. Further, for the setting “orally administered”, the “highest concentration (Cmax) in the blood” value is 7000 ng/mL and the “time to reach the highest concentration (Tmax)” value is recorded as “about 6 hours”.

In the case of `C=C(C)[C@@H]1CCC(C)=C[C@H]1c1c(O)cc(CCCCC)cc1O` [Cannabidiol], the bioavailability in series [3] (inhalation) was 11-45%; in series [3] (orally), 13-19%.
